From patent US7279575B2, “Pyrimidylpyrrole derivatives active as kinase inhibitors” (Pfizer Italia S.r.l., priority 2003, dated 2007)
“And” between values parts separate entries of the source, which are not always exact repeats. Identical values can stand only once. Counter-ions that a name gives are not always drawn.

Legend:
Cdc7/Dbf4 = Cdc7/Dbf4 (Homo sapiens, UniProt O00311); assay: Inhibition assay of Cdc7/Dbf4 activity (Dowex resin capture, 33P-ATP, MCM2 substrate); assay type: biochemical; conditions: MCM2 6 μM, ATP 2 μM, Cdc7/Dbf4 2 nM, 60 minutes at room temperature
Experimental: The inhibiting activity of putative Cdc7 inhibitors and the potency of selected compounds is determined through a method of assay based on the use of Dowex resin capture technology. The assay consists of the transfer of radioactivity labeled phosphate moiety by the kinase to an acceptor substrate. The resulting 33P-labeled product is separated from unreacted tracer, transferred into a scintillation cocktail and light emitted is measured in a scintillation counter.
Inhibition Assay of Cdc7/Dbf4 Activity
The inhibition assay of Cdc7/Dbf4 activity is performed according to the following protocol. The MCM2 substrate is trans-phosphorylated by the Cdc7/Dbf4 complex in the presence of ATP traced with γ^33-ATP. The reaction is stopped by addition of Dowex resin in the presence of formic acid. Dowex resin particles capture unreacted γ^33-ATP and drag it to the bottom of the well while ^33p phosphorylated MCM2 substrate remains in solution. The supernatant is collected, transferred into Optiplate plates and the extent of substrate phosphorylation is evaluated by β counting.
The inhibition assay of Cdc7/Dbf4 activity was performed in 96 wells plate according to the following protocol.
To each well of the plate were added: • 10 μl test compound (10 increasing concentrations in the nM to μM range to generate a dose-response curve). The solvent for test compounds contained 3% DMSO. (final concentration 1%) • 10 μl substrate MCM2 (6 μM final concentration), a mixture of cold ATP (2 μM final concentration) and radioactive ATP (1/5000 molar ratio with cold ATP). • 10 μl enzyme (Cdc7/Dbf4, 2 nM final concentration) that started the reaction. The buffer of the reaction consisted in 50 mM HEPES pH 7.9 containing 15 mM MgCl2, 2 mM DTT, 3 μM NaVO3, 2 mM glycerophosphate and 0.2 mg/ml BSA.
After incubation for 60 minutes at room temperature, the reaction was stopped by adding to each well 150 μl of Dowex resin in the presence of 150 mM formic acid. After another 60 min incubation, 50 μL of suspension were withdrawn and transferred into 96-well OPTIPLATEs containing 150 μl of MicroScint 40 (Packard); after 5-10 minutes shaking the plates were read for 1 min in a Packard TOP-Count radioactivity reader.
(§1) IC50 determination: inhibitors were tested at different concentrations ranging from 0.0005 to 10 μM. Experimental data were analyzed by the computer program Assay Explorer using the four parameter logistic equation: y=bottom+(top−bottom)/(1+10^((log|C50−x)*slope)) where x is the logarithm of the inhibitor concentration, y is the response; y starts at bottom and goes to top with a sigmoid shape.

cdk2/Cyclin A = cdk2/Cyclin A (Homo sapiens, UniProt P24941); assay: Inhibition assay of cdk2/Cyclin A activity (SPA, biotinylated histone H1); assay type: biochemical; conditions: histone H1 4 μM, ATP 10 μM, Cyclin A/CDK2 1.1 nM, 60 min at room temperature
Experimental: The inhibiting activity of putative cdk/cyclin inhibitors and the potency of selected compounds may be determined through a method of assay based on the use of the SPA technology (Amersham Pharmacia Biotech).
The assay consists of the transfer of radioactivity labelled phosphate moiety by the kinase to a biotinylated substrate. The resulting 33P-labelled biotinylated product is allowed to bind to streptavidin-coated SPA beads (biotin capacity 130 pmol/mg), and light emitted was measured in a scintillation counter.
Inhibition Assay of cdk2/Cyclin A Activity
Kinase reaction: 4 μM in house biotinylated histone H1 (Sigma # H-5505) substrate, 10 μM ATP (0.1 microCi P^33γ-ATP), 1.1 nM Cyclin A/CDK2 complex, inhibitor in a final volume of 30 μl buffer (TRIS HCl 10 mM pH 7.5, MgCl2 10 mM, DTT 7.5 mM+0.2 mg/ml BSA) were added to each well of a 96 U bottom. After incubation for 60 min at room temperature, the reaction was stopped by addition of 100 μl PBS buffer containing 32 mM EDTA, 500 μM cold ATP, 0.1% Triton X100 and 10 mg/ml streptavidin coated SPA beads. After 20 min incubation, 110 μL of suspension were withdrawn and transferred into 96-well OPTIPLATEs containing 100 μl of 5M CsCl. After 4 hours, the plates were read for 2 min in a Packard TOP-Count radioactivity reader.
as §1, with “0.0015” for “0.0005”, “GraphPad Prizm” for “Assay Explorer”, “y=bottom+(top−bottom)/(1+10^((loglC50−x)*slope))” for “y=bottom+(top−bottom)/(1+10^((log|C50−x)*slope))”

Sequence of Cdc7/Dbf4 (O00311 whole entry, species assumed): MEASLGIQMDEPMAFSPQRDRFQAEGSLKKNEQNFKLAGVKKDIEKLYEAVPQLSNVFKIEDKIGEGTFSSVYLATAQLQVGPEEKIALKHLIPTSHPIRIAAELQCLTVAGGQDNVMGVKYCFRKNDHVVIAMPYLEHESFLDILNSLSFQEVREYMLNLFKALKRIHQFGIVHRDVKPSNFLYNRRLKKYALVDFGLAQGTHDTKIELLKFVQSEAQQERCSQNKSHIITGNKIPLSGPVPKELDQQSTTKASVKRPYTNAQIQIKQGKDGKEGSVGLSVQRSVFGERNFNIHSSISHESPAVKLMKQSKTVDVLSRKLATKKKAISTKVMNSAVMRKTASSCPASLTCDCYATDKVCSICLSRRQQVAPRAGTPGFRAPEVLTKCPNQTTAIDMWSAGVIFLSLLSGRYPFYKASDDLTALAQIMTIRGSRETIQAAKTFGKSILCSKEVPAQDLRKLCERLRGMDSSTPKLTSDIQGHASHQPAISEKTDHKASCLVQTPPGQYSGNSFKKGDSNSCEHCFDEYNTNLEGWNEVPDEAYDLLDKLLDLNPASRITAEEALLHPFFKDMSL
Sequence of Cdc7/Dbf4 (Q9UBU7 whole entry partner, species assumed): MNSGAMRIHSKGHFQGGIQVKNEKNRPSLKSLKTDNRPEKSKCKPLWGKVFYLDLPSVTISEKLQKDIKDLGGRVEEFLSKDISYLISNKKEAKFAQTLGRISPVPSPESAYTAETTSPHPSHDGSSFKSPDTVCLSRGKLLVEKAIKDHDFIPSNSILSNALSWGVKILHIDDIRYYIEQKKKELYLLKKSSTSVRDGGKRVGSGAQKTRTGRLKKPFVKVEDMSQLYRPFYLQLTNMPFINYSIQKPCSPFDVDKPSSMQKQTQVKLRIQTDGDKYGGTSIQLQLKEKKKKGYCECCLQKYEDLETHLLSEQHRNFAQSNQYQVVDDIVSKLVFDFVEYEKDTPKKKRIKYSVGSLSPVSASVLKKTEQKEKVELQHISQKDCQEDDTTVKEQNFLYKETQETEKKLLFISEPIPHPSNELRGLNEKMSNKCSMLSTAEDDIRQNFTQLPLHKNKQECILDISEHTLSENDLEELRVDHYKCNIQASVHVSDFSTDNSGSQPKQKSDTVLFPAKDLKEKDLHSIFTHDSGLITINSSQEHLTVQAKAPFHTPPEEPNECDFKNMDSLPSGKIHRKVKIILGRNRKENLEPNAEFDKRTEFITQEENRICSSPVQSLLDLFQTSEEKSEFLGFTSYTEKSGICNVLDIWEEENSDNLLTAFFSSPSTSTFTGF

SMILES	IC50 (Cdc7/Dbf4)	IC50 (cdk2/Cyclin A) [nM]
CC(=O)Nc1ccc(CNc2nccc(-c3cc4c([nH]3)CCNC4=O)n2)cc1 [N-[4-({[4-(4-oxo-4,5,6,7-tetrahydro-1H-pyrrolo[3,2-c]pyridin-2-yl)pyrimidin-2-yl]amino}methyl)phenyl]acetamide trifluoroacetate]	300 nM	20
CCCNc1nccc(-c2cc3c([nH]2)CCNC3=O)n1 [2-[2-(propylamino)pyrimidin-4-yl]-1,5,6,7-tetrahydro4H-pyrrolo[3,2-c]pyridin-4-one]	310 nM	35
CC1(C)Cc2[nH]c(-c3ccnc(N)n3)cc2C(=O)N1 [2-(2-aminopyrimidin-4-yl)-6,6-dimethyl-1,5,6,7-tetrahydro-4H-pyrrolo[3,2-c]pyridin-4-one hydrochloride]	32 nM	
CC(C)CC1Cc2[nH]c(-c3ccnc(N)n3)cc2C(=O)N1 (stereo not shown) [2-(2-aminopyrimidin-4-yl)-6-isobutyl-1,5,6,7-tetrahydro-4H-pyrrolo[3,2-c]pyridin-4-one]	4 nM	
O=C1NCCc2[nH]c(-c3ccnc(NCc4ccccc4)n3)cc21 [2-[2-(benzylamino)pyrimidin-4-yl]-1,5,6,7-tetrahydro-4H-pyrrolo[3,2-c]pyridin-4-one]	270 nM	
Nc1nccc(-c2cc3c([nH]2)C(c2ccccc2)CNC3=O)n1 (stereo not shown) [2-(2-aminopyrimidin-4-yl)-7-phenyl-1,5,6,7-tetrahydro-4H-pyrrolo[3,2-c]pyridin-4-one hydrochloride]	15 nM	
CC1Cc2[nH]c(-c3ccnc(N)n3)cc2C(=O)N1 (stereo not shown) [2-(2-aminopyrimidin-4-yl)-6-methyl-1,5,6,7-tetrahydro-4H-pyrrolo[3,2-c]pyridin-4-one]	26 nM	
CC(C)C1Cc2[nH]c(-c3ccnc(N)n3)cc2C(=O)N1 (stereo not shown) [2-(2-aminopyrimidin-4-yl)-6-isopropyl-1,5,6,7-tetrahydro-4H-pyrrolo[3,2-c]pyridin-4-one]	9 nM	
CCC1(CC)CNC(=O)c2cc(-c3ccnc(N)n3)[nH]c21 [2-(2-aminopyrimidin-4-yl)-7,7-diethyl-1,5,6,7-tetrahydro-4H-pyrrolo[3,2-c]pyridin-4-one]	7 nM	
O=C1NCC(c2ccccc2)c2[nH]c(-c3ncnc4[nH]cnc34)cc21 (stereo not shown) [7-phenyl-2-(9H-purin-6-yl)-1,5,6,7-tetrahydro-4H-pyrrolo[3,2-c]pyridin-4-one hydrochloride]	90 nM	
Nc1nccc(-c2[nH]c3c(c2I)C(=O)NCC3)n1 [2-(2-aminopyrimidin-4-yl)-3-iodo-1,5,6,7-tetrahydro-4H-pyrrolo[3,2-c]pyridin-4-one]	4 nM	
O=C(Nc1nccc(-c2cc3c([nH]2)CCNC3=O)n1)c1ccccc1 [N-[4-(4-oxo-4,5,6,7-tetrahydro-1H-pyrrolo[3,2-c]pyridin-2-yl)pyrimidin-2-yl]benzamide]	300 nM	
CC1CNC(=O)c2cc(-c3ccnc(N)n3)[nH]c21 (racemic) [2-(2-aminopyrimidin-4-yl)-7-methyl-1,5,6,7-tetrahydro-4H-pyrrolo[3,2-c]pyridin-4-one]	8 nM	
O=C1NCCc2[nH]c(-c3ncnc4[nH]cnc34)cc21 [2-(9H-purin-6-yl)-1,5,6,7-tetrahydro-4H-pyrrolo[3,2-c]pyridin-4-one hydrochloride]	200 nM	
Nc1nccc(-c2cc3c([nH]2)CCNC3=O)n1 [2-(2-aminopyrimidin-4-yl)-1,5,6,7-tetrahydro-4H-pyrrolo[3,2-c]pyridin-4-one hydrochloride]	11 nM	
CC(C)CNc1nccc(-c2cc3c([nH]2)CCNC3=O)n1 [2-[2-(isobutylamino)pyrimidin-4-yl]-1,5,6,7-tetrahydro-4H-pyrrolo[3,2-c]pyridin-4-one]		50

Second part, the compound after the results:

IC50 (Cdc7/Dbf4)	IC50 (cdk2/Cyclin A) [nM]	SMILES
80 nM		CCOC(=O)Nc1nccc(-c2cc3c([nH]2)CCNC3=O)n1 [ethyl 4-(4-oxo-4,5,6,7-tetrahydro-1H-pyrrolo[3,2-c]pyridin-2-yl)pyrimidin-2-ylcarbamate]
8 nM		CC(C)C1CNC(=O)c2cc(-c3ccnc(N)n3)[nH]c21 (stereo not shown) [2-(2-aminopyrimidin-4-yl)-7-isopropyl-1,5,6,7-tetrahydro-4H-pyrrolo[3,2-c]pyridin-4-one]
5 nM		CC1CNC(=O)c2cc(-c3ccnc(N)n3)[nH]c21 (single isomer, unassigned) [(7R or 7S)-2-(2-aminopyrimidin-4-yl)-7-methyl-1,5,6,7-tetrahydro-4H-pyrrolo[3,2-c]pyridin-4-one]
32 nM		O=C1NCC(c2ccccc2)c2[nH]c(-c3ccncn3)cc21 (stereo not shown) [7-phenyl-2-pyrimidin-4-yl-1,5,6,7-tetrahydro-4H-pyrrolo[3,2-c]pyridin-4-one hydrochloride]
2 nM		CC1(C)CNC(=O)c2cc(-c3ccnc(N)n3)[nH]c21 [2-(2-aminopyrimidin-4-yl)-7,7-dimethyl-1,5,6,7-tetrahydro-4H-pyrrolo[3,2-c]pyridin-4-one]
29 nM		O=C1NCC(c2ccccc2)c2[nH]c(-c3ccnc(Nc4ccccc4)n3)cc21 (stereo not shown) [2-(2-anilinopyrimidin-4-yl)-7-phenyl-1,5,6,7-tetrahydro-4H-pyrrolo[3,2-c]pyridin-4-one hydrochloride]
74 nM and 87 nM	80	O=C1NCCc2[nH]c(-c3ccnc(NCc4ccco4)n3)cc21 [2-{2-[(2-furylmethyl)amino]pyrimidin-4-yl}-1,5,6,7-tetrahydro-4H-pyrrolo[3,2-c]pyridin-4-one]
7 nM		O=C1NCCc2[nH]c(-c3ccnc(Nc4ccccc4)n3)cc21 [2-(2-phenylaminopyrimidin-4-yl)-1,5,6,7-tetrahydro-4H-pyrrolo[3,2-c]pyridin-4-one hydrochloride]
4 nM		CC1CNC(=O)c2cc(-c3ccnc(N)n3)[nH]c21 (single isomer, unassigned) [(7R or 7S)-2-(2-aminopyrimidin-4-yl)-7-methyl-1,5,6,7-tetrahydro-4H-pyrrolo[3,2-c]pyridin-4-on]
680 nM	220	O=C1NCCc2[nH]c(-c3ccnc(NCC4CCCCC4)n3)cc21 [2-{2-[(cyclohexylmethyl)amino]pyrimidin-4-yl}-1,5,6,7-tetrahydro-4H-pyrrolo[3,2-c]pyridin-4-one]
19 nM		O=C1NCCc2[nH]c(-c3ccncn3)cc21 [2-pyrimidin-4-yl-1,5,6,7-tetrahydro-4H-pyrrolo[3,2-c]pyridin-4-one hydrochloride]
